Tests used:
Assay type in all cases: cell-based
Conditions in all cases: hPBMC Cell; 24 hours
[1] = biological target: T1, WEE1 (Homo sapiens, UniProt P30291+Q96SW2); assay: Western blot degradation of WEE1
T1 construct: expression of target proteins in cells; endogenous in cells
Method: (§1) Conventional Western blot assay was performed to evaluate the effects of the compounds of the present disclosure on the expression of target proteins in cells.
(§2) (1) Cell Seeding and Protein Harvesting: The selected cells were processed according to the cell seeding procedure and protein harvesting procedure in Table II-2.
(§3) (2) To the collected supernatant, 5×SDS sample loading buffer was added, followed by denaturation at 95 °C for 5 minutes. The denatured samples were then separated by SDS-PAGE electrophoresis on a polyacrylamide gel. Proteins were transferred to a nitrocellulose membrane (0.45 μm NC membrane), blocked with blocking buffer at room temperature for 1 hour, and subjected to antibody incubation and development procedures according to the antibody manufacturer's instructions (Cell Signaling Technology).
(§4) Half-Maximal Degradation Concentration value (the drug concentration required for degrading proteins by 50%, abbreviated as DC50) reads method: comparing the grayscale values of Western blot bands from drug-treated samples with those from blank DMSO-treated controls, and identifying the drug concentration range at which the grayscale value is half that of the DMSO-treated control bands.
(§5) DC50 values can be calculated using ImageJ software to measure grayscale values of Western blot bands from drug-treated samples. The concentration-response curve is fitted to estimate the drug concentration corresponding to half the grayscale value.
(§6) Target protein remaining (%) refers to the percentage of target protein remaining in cells after treatment with protein degrader compounds.
(§7) Calculation method for target protein remaining (%): Use ImageJ software to measure grayscale values of Western blot bands from drug (protein degrader)-treated samples. The grayscale value of drug-treated bands is divided by that of internal control protein bands, and the resulting quotient is normalized to obtain the relative percentage of remaining target protein after protein degrader treatment.
(§8) Target protein degradation rate (%)=1−target protein remaining (%).

[2] = biological target: T2, IKZF1 (Homo sapiens, UniProt Q13422+Q96SW2); assay: Western blot degradation of IKZF1
T2 construct: expression of target proteins in cells; endogenous in cells
Method: as §1, §2, §3, §4, §5, §6, §7, §8

[3] = biological target: T3, GSPT1 (Homo sapiens, UniProt P15170+Q96SW2); assay: Western blot degradation of GSPT1
T3 construct: expression of target proteins in cells; endogenous in cells
Method: as §1, §2, §3, §4, §5, §6, §7, §8

[4] = biological target: T4, IKZF3 (Homo sapiens, UniProt Q96SW2+Q9UKT9); assay: Western blot degradation of IKZF3
T4 construct: expression of target proteins in cells; endogenous in cells
Method: as §1, §2, §3, §4, §5, §6, §7, §8

[5] = biological target: T5, IKZF2 (Homo sapiens, UniProt Q96SW2+Q9UKS7); assay: Western blot degradation of IKZF2
T5 construct: expression of target proteins in cells; endogenous in cells
Method: as §1, §2, §3, §4, §5, §6, §7, §8

[6] = biological target: T6, CK1α (Homo sapiens, UniProt P48729+Q96SW2); assay: Western blot degradation of CK1α
T6 construct: expression of target proteins in cells; endogenous in cells
Method: as §1, §2, §3, §4, §5, §6, §7, §8

T4 sequence (Q9UKT9 whole entry): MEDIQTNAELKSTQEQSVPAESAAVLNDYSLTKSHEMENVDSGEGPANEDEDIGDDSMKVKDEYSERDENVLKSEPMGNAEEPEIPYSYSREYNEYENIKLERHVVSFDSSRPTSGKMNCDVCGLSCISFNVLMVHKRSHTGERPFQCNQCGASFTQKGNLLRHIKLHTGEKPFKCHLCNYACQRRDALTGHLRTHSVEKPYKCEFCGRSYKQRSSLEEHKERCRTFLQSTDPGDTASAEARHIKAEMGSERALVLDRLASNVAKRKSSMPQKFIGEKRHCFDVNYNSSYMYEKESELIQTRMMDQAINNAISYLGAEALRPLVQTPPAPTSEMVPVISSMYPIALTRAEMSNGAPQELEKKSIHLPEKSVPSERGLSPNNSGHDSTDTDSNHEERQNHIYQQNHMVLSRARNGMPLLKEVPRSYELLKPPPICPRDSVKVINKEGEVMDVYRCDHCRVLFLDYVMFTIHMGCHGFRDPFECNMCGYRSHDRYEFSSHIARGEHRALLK
T4 sequence (Q96SW2 whole entry): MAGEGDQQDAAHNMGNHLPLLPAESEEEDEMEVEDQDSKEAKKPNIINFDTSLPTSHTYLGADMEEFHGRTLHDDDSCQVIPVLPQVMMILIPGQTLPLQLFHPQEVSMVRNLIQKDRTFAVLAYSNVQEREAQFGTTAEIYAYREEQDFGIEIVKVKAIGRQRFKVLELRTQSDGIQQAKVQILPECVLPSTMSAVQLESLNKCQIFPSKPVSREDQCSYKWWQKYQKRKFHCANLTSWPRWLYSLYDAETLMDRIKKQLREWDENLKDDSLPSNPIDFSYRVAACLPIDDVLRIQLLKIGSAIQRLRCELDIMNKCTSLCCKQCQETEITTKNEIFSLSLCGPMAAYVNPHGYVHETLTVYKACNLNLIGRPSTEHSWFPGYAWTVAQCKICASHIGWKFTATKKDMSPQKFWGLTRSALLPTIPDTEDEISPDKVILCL
T4 sequence (Q16531 whole entry partner): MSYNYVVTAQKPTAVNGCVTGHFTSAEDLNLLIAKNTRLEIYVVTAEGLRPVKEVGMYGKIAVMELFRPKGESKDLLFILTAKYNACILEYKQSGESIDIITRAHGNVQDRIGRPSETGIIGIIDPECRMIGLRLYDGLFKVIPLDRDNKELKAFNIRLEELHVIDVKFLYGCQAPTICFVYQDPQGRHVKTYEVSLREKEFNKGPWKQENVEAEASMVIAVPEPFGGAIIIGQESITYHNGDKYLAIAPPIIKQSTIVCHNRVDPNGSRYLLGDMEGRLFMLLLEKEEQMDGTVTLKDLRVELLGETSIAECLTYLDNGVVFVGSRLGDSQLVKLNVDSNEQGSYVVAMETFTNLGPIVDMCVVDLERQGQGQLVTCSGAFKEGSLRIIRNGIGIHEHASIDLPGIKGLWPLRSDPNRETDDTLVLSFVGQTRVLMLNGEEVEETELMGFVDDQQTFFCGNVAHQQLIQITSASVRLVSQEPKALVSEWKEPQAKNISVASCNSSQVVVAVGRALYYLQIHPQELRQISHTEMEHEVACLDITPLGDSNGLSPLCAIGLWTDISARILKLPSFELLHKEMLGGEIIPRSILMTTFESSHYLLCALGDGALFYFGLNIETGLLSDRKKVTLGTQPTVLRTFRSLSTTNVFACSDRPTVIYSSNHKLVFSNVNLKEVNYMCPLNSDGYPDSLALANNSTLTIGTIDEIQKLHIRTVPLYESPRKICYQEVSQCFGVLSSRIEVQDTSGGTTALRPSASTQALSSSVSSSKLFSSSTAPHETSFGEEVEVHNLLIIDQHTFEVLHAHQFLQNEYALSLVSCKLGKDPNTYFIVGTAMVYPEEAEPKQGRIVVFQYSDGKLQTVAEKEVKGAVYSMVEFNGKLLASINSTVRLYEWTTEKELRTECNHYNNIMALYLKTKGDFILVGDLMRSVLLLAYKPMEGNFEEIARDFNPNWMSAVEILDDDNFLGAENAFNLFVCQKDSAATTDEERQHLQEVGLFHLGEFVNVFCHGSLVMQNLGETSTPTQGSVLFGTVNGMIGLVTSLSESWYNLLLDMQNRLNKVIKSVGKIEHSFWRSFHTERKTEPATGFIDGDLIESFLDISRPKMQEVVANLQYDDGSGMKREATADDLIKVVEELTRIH
T3 sequence (P15170 whole entry): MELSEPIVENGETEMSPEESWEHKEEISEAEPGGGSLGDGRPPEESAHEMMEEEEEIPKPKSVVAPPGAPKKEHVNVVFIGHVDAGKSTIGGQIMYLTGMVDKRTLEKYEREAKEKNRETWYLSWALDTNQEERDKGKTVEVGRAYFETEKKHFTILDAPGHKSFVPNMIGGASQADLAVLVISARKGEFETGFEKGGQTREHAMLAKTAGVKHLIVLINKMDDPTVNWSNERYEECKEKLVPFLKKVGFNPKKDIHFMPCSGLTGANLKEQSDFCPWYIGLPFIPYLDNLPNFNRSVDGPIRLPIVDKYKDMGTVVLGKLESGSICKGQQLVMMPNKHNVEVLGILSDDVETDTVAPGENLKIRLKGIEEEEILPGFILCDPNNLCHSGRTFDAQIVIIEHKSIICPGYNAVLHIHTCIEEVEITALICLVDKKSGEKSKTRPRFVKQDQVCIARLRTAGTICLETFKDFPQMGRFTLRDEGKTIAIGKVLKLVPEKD
T3 sequence (Q96SW2 whole entry): as the sequence (Q96SW2 whole entry) above
T3 sequence (Q16531 whole entry partner): as the sequence (Q16531 whole entry partner) above
T6 sequence (P48729 whole entry): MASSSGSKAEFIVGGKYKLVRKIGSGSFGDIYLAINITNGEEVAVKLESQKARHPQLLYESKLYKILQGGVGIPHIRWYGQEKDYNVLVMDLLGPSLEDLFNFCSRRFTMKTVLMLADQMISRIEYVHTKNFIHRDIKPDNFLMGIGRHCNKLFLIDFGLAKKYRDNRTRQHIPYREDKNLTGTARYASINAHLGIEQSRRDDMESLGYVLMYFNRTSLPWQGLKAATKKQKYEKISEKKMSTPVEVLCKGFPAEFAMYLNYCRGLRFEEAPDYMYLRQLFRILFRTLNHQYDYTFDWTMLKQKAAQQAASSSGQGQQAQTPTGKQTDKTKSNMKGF
T6 sequence (Q96SW2 whole entry): as the sequence (Q96SW2 whole entry) above
T6 sequence (Q16531 whole entry partner): as the sequence (Q16531 whole entry partner) above
T5 sequence (Q9UKS7 whole entry): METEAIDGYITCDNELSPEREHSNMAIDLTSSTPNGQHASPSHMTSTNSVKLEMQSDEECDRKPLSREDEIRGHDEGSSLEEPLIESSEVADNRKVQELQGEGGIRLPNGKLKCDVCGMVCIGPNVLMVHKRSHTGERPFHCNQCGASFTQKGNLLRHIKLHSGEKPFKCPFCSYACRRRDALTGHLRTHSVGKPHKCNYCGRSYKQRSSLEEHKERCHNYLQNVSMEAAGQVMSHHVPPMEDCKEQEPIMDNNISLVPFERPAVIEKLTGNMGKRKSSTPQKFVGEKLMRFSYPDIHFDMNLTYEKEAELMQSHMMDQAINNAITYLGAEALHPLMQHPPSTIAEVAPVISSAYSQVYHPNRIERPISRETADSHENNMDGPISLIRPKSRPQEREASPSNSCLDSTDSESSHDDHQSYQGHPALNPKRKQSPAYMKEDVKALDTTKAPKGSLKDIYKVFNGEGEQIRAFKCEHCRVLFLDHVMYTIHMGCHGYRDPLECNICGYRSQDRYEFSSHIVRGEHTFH
T5 sequence (Q96SW2 whole entry): as the sequence (Q96SW2 whole entry) above
T5 sequence (Q16531 whole entry partner): as the sequence (Q16531 whole entry partner) above
T1 sequence (P30291 whole entry): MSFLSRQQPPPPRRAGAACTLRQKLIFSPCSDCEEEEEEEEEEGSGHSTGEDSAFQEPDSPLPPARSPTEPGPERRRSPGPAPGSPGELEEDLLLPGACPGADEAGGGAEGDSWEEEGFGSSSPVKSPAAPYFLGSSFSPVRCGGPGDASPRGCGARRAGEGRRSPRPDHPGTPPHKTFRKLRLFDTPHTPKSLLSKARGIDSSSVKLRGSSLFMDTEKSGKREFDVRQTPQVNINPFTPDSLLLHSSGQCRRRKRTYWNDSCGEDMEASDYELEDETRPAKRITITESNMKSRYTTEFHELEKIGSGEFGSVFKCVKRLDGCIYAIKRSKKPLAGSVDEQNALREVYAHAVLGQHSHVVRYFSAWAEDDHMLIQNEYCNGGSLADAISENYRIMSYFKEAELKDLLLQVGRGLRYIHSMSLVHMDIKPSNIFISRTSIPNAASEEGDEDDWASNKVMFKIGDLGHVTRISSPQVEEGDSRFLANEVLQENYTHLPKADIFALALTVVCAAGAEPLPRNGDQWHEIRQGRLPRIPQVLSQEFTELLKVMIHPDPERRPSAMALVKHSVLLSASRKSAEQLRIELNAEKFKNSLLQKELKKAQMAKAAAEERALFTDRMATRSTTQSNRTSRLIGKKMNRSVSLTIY
T1 sequence (Q96SW2 whole entry): as the sequence (Q96SW2 whole entry) above
T1 sequence (Q16531 whole entry partner): as the sequence (Q16531 whole entry partner) above

| Compound | Degradation of substrate protein WEE1 (substrate protein remaining %) [1] | Degradation of substrate protein IKZF1 (substrate protein remaining %) [2] | Degradation of substrate protein GSPT1 (substrate protein remaining %) [3] | Degradation of substrate protein IKZF3 (substrate protein remaining %) [4] | Degradation of substrate protein IKZF2 (substrate protein remaining %) [5] | Degradation of substrate protein CK1α (substrate protein remaining %) [6] |
| --- | --- | --- | --- | --- | --- | --- |
| O=C1CCN(N2C(=O)c3ccc(CO)cc3C2=O)C(=O)N1 [GT-04536, 2-(2,4-dioxotetrahydropyrimidin-1(2H)-yl)-5-(hydroxymethyl)isoindoline-1,3-dione] | B (80%<substrate protein remaining %≤100%) | B (80%<substrate protein remaining %≤100%) | A (0%≤substrate protein remaining %≤80%) | B (80%<substrate protein remaining %≤100%) | B (80%<substrate protein remaining %≤100%) | B (80%<substrate protein remaining %≤100%) |
| O=C1CCN(N2C(=O)c3ccc(N4CCC(N5CCNCC5)C(F)(F)C4)cc3C2=O)C(=O)N1 (stereo not drawn) [GT-04990, 5-(3,3-difluoro-4-(piperazin-1-yl)piperidin-1-yl)-2-(2,4-dioxotetrahydropyrimidin-1(2H)-yl)isoindoline-1,3-dione] | A (0%≤substrate protein remaining %≤80%) | B (80%<substrate protein remaining %≤100%) | A (0%≤substrate protein remaining %≤80%) | B (80%<substrate protein remaining %≤100%) | B (80%<substrate protein remaining %≤100%) | B (80%<substrate protein remaining %≤100%) |
| O=C1CCN(N2Cc3cc(CO)ccc3C2=O)C(=O)N1 [GT-05567, 1-(5-(hydroxymethyl)-1-oxoisoindolin-2-yl)dihydropyrimidine-2,4(1H, 3H)-dione] | A (0%≤substrate protein remaining %≤80%) | A (0%≤substrate protein remaining %≤80%) | A (0%≤substrate protein remaining %≤80%) | A (0%≤substrate protein remaining %≤80%) | B (80%<substrate protein remaining %≤100%) | A (0%≤substrate protein remaining %≤80%) |
| O=C1CCN(N2Cc3c(O)cccc3C2=O)C(=O)N1 [GT-05570, 1-(4-hydroxy-1-oxoisoindolin-2-yl)dihydropyrimidine-2,4(1H, 3H)-dione] | A (0%≤substrate protein remaining %≤80%) | A (0%≤substrate protein remaining %≤80%) | A (0%≤substrate protein remaining %≤80%) | A (0%≤substrate protein remaining %≤80%) | A (0%≤substrate protein remaining %≤80%) | A (0%≤substrate protein remaining %≤80%) |
| O=C1CCN(N2C(=O)c3ccc(F)cc3C2=O)C(=O)N1 [GT-05575, 2-(2,4-dioxotetrahydropyrimidin-1(2H)-yl)-5-fluoroisoindoline-1,3-dione] | A (0%≤substrate protein remaining %≤80%) | B (80%<substrate protein remaining %≤100%) | A (0%≤substrate protein remaining %≤80%) | A (0%≤substrate protein remaining %≤80%) | A (0%≤substrate protein remaining %≤80%) | A (0%≤substrate protein remaining %≤80%) |
| O=C1CCN(N2C(=O)c3cccc(F)c3C2=O)C(=O)N1 [GT-05576, 2-(2,4-dioxotetrahydropyrimidin-1(2H)-yl)-4-fluoroisoindoline-1,3-dione] | A (0%≤substrate protein remaining %≤80%) | B (80%<substrate protein remaining %≤100%) | A (0%≤substrate protein remaining %≤80%) | A (0%≤substrate protein remaining %≤80%) | A (0%≤substrate protein remaining %≤80%) | A (0%≤substrate protein remaining %≤80%) |
| O=CC1CCN(c2ccc3c(c2)C(=O)N(N2CCC(=O)NC2=O)C3=O)CC1 [GT-05580, 1-(2-(2,4-dioxotetrahydropyrimidin-1(2H)-yl)-1,3-dioxoisoindolin-5-yl)piperidine-4-carbaldehyde] | A (0%≤substrate protein remaining %≤80%) | B (80%<substrate protein remaining %≤100%) | A (0%≤substrate protein remaining %≤80%) | A (0%≤substrate protein remaining %≤80%) | A (0%≤substrate protein remaining %≤80%) | A (0%≤substrate protein remaining %≤80%) |
| O=C1CCN(N2C(=O)c3ccc(N4CCNCC4)cc3C2=O)C(=O)N1 [GT-05581, 2-(2,4-dioxotetrahydropyrimidin-1(2H)-yl)-5-(piperazin-1-yl)isoindoline-1,3-dione] | A (0%≤substrate protein remaining %≤80%) | B (80%<substrate protein remaining %≤100%) | A (0%≤substrate protein remaining %≤80%) | A (0%≤substrate protein remaining %≤80%) | B (80%<substrate protein remaining %≤100%) | A (0%≤substrate protein remaining %≤80%) |
| O=C1CCN(N2C(=O)c3ccc(N4C[C@@H]5C[C@H]4CN5)cc3C2=O)C(=O)N1 [GT-05582, 5-((1S, 4S)-2,5-diazabicyclo[2.2.1]heptan-2-yl)-2-(2,4-dioxotetrahydropyrimidin-1(2H)-yl)isoindoline-1,3-dione] | A (0%≤substrate protein remaining %≤80%) | B (80%<substrate protein remaining %≤100%) | A (0%≤substrate protein remaining %≤80%) | A (0%≤substrate protein remaining %≤80%) | A (0%≤substrate protein remaining %≤80%) | A (0%≤substrate protein remaining %≤80%) |

Source: patent publication US20260364184A1, “COMPOUND BASED ON OXOISOINDOLINYL-SUBSTITUTED TETRAHYDROPYRIMIDINE-DIONE AND USE THEREOF” (GLUETACS THERAPEUTICS (SHANGHAI) CO., LTD., priority 2023, published 2026)
